Data taken from article PMC5431781, “Structural studies of the periplasmic portion of the diguanylate cyclase CdgH from Vibrio cholerae” (Scientific Reports, 2017).
pKd: −log10 of the molar value. Where two headings read alike, the source gives them in different places.

Assays:
[1] = target: PBPb-I domain of CdgH (residues 46–250) (Vibrio cholerae, UniProt Q9KT38); assay type: binding
LAOBP = target: LAOBP; parameters: method as in PMID 1400387; conditions: cited from earlier work

PBPb-I domain of CdgH (residues 46–250), sequence (Q9KT38 46-250 limits assumed): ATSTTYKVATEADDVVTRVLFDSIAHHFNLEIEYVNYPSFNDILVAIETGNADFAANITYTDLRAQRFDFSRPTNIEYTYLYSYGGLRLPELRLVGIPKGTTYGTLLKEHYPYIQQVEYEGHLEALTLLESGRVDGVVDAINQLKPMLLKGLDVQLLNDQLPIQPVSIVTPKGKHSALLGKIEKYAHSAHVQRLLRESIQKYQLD

Compound | ΔH ([1]; pH 8) [kcal/mol] | also measured
N[C@@H](CC(=O)O)C(=O)O [L-aspartate] |  | Kd ([1]; pH 8): no measurable binding affinity
NCCC[C@H](N)C(=O)O [L-Orn, L-ornithine] | -3.61 ± 0.08 | Ka ([1]; pH 8): 240000 ± 33700 M⁻¹; pKd ([1]; pH 8, read-out: Kd): 5.38
NCCCC[C@H](N)C(=O)O [L-Lys, L-lysine] | -6.02 ± 0.05 | binding affinity weaker than that with L-arginine [1]: about 18 fold
N[C@@H](Cc1c[nH]cn1)C(=O)O [L-His, L-histidine] | -7.90 ± 0.28 | 
NC(=O)CC[C@H](N)C(=O)O [L-Gln, L-glutamine] | -3.57 ± 1.02 | 
N=C(N)NCCC[C@H](N)C(=O)O [L-Arg, L-arginine] | -12.87 ± 0.04 | pKd (LAOBP): 7.85
